SMILES strings stand for the structures.

The test system of this assay is rhIFNγ stimulated STAT-3 phosphorylation in the A549 human epithelial cell line. Briefly: A549 Cell Assay: Inhibition of pSTAT3. Format: cell-based. The settings on record: Homo sapiens; A549 cells. Here is the method:
A549 Cell Assay: Inhibition of pSTAT3
An assay measuring the efficacy of JAK inhibitors on the functional response of recombinant human interferon γ (rhIFNγ) stimulated STAT-3 phosphorylation in the A549 human epithelial cell line.
A549 cells (ATCC #CCL-185), were plated at 30,000 cells/well in 96 well flat bottomed tissue culture plates (BD#353072) in 200 μL of growth medium (DMEM, Pfizer media prep, with 10% Fetal Bovine Serum, Sigma #F4135, 2 mM L-Glutamine, Pfizer media prep, 100 U/mL penicillin, Pfizer media prep, and 200 μg/ml streptomycin, Pfizer media prep), and cultured at 37° C., 5% CO2 incubator for 18 hours. Growth medium was removed by vacuum aspiration (V&P Scientific #vp187 bp-60), and 90 μL of pre-warmed assay medium (DMEM with 0.2% BSA, Miltenyi #130-091-376) was added to each well and incubated for 15 minutes at 37° C. 10 μL of vehicle control or test compound (final concentration range of 0.3 nM to 10 μM with 0.1% DMSO) was added to the cells. Plates were incubated at 37° C. for 1 hour. After compound incubation, 10 μL of 220 ng/mL recombinant human IFNγ (R&D Systems #285-IF, final rhIFNγ concentration of 20 ng/mL) was added to the cells and plates were incubated for 30 minutes at 37° C. Wells containing A549 cells, medium with 0.1% DMSO and no rhIFNγ were used as background controls. After rhIFNγ stimulation, media was aspirated from each well and 35 μL/well of iced-cold MSD lysis buffer containing protease and phosphatase inhibitors from Phospho-STAT3 Tyr705 assay kit (Meso-Scale Discovery #K150DID) was added to each well. Plates were incubated at 4° C. with shaking for 30 minutes. Cell lysates were assayed following the MSD Phospho-STAT3 Tyr705 assay kit protocol to detect pSTAT3.
Data were collected and transformed into percent inhibition and calculated using the following formula: […]
The compound `CNC(=O)c1n[nH]c2cc(-c3cc(F)c(O)cc3CC(F)(F)F)nc(NCC(C)C)c12` [Example 16, 6-[5-fluoro-4-hydroxy-2-(2,2,2-trifluoroethyl)phenyl]-N-methyl-4-[(2-methylpropyl)amino]-1H-pyrazolo[4,3-c]pyridine-3-carboxamide] yielded an IC50 of 65.1 nM. The value for `CN(c1ccc(F)cc1CNc1nc(-c2cc(F)c(O)cc2CC(F)(F)F)cc2[nH]nc(C(N)=O)c12)S(C)(=O)=O` [Example 88, 6-[5-fluoro-4-hydroxy-2-(2,2,2-trifluoroethyl)phenyl]-4-({5-fluoro-2-[methyl(methylsulfonyl)amino]benzyl}amino)-1H-pyrazolo[4,3-c]pyridine-3-carboxamide] was 31.5 nM; that for `CCN(c1nccnc1CNc1nc(-c2cc(F)c(O)cc2CC(F)(F)F)cc2[nH]nc(C(=O)NC)c12)S(C)(=O)=O` [Example 45, 4-[({3-[ethyl(methylsulfonyl)amino]pyrazin-2-yl}methyl)amino]-6-[5-fluoro-4-hydroxy-2-(2,2,2-trifluoroethyl)phenyl]-N-methyl-1H-pyrazolo[4,3-c]pyridine-3-carboxamide] was 46.5 nM. Under `CC(CO)CNc1nc(-c2cc(F)c(O)cc2CC(F)(F)F)nc2[nH]nc(-c3nc4c([nH]3)CCN(Cc3ccccc3)C4)c12` (stereo not drawn) [Example 173, 4-(3-(5-Benzyl-4,5,6,7-tetrahydro-1H-imidazo[4,5-c]pyridin-2-yl)-4-((3-hydroxy-2-methylpropyl)amino)-1H-pyrazolo[3,4-d]pyrimidin-6-yl)-2-fluoro-5-(2,2,2-trifluoroethyl)phenol] stands 220 nM; under `CNC(=O)c1n[nH]c2cc(-c3cc(F)c(O)cc3CC(F)(F)F)nc(NCc3ccccc3N(C)S(=O)(=O)c3cn[nH]c3)c12` [Example 58, 6-(5-fluoro-4-hydroxy-2-(2,2,2-trifluoroethyl)phenyl)-N-methyl-4-((2-(N-methyl-1H-pyrazole-4-sulfonamido)benzyl)amino)-1H-pyrazolo[4,3-c]pyridine-3-carboxamide], 174 nM; under `CCc1cc(O)c(F)cc1-c1cc2[nH]nc(C(=O)NC)c2c(NCC(C)C)n1` [Example 5, 6-(2-ethyl-5-fluoro-4-hydroxyphenyl)-N-methyl-4-[(2-methylpropyl)amino]-1H-pyrazolo[4,3-c]pyridine-3-carboxamide], 1.7 nM. The value for `CCN(c1ccccc1CNc1nc(-c2cc(F)c(O)cc2CC(F)(F)F)cc2[nH]nc(C(N)=O)c12)S(=O)(=O)CC` [Example 82, 4-((2-(N-ethylethylsulfonamido)benzyl)amino)-6-(5-fluoro-4-hydroxy-2-(2,2,2-trifluoroethyl)phenyl)-1H-pyrazolo[4,3-c]pyridine-3-carboxamide] was 20.9 nM; that for `CCN(c1ccccc1CNc1nc(-c2cc(F)c(O)cc2CC(F)(F)F)cc2[nH]nc(C(N)=O)c12)S(C)(=O)=O` [Example 90, 4-({2-[ethyl(methylsulfonyl)amino]benzyl}amino)-6-[5-fluoro-4-hydroxy-2-(2,2,2-trifluoroethyl)phenyl]-1H-pyrazolo[4,3-c]pyridine-3-carboxamide] was 30.4 nM; that for `CCc1cc(O)c(F)cc1-c1cc2[nH]nc(-n3cccn3)c2c(NCc2ccccc2N(C)S(C)(=O)=O)n1` [Example 162, N-[2-({[6-(2-Ethyl-5-fluoro-4-hydroxyphenyl)-3-(1H-pyrazol-1-yl)-1H-pyrazolo[4,3-c]pyridin-4-yl]amino}methyl)phenyl]-N-methylmethanesulfonamide] was 20 nM. In turn, `CCN(c1ccc(O)cc1CNc1nc(-c2cc(F)c(O)cc2CC(F)(F)F)cc2[nH]nc(C(N)=O)c12)S(=O)(=O)c1ccccc1` [Example 43, 4-({2-[ethyl(phenylsulfonyl)amino]-5-hydroxybenzyl}amino)-6-[5-fluoro-4-hydroxy-2-(2,2,2-trifluoroethyl)phenyl]-1H-pyrazolo[4,3-c]pyridine-3-carboxamide] returned an IC50 of 764 nM. For `CNC(=O)c1n[nH]c2nc(-c3cc(F)c(O)cc3CC(F)(F)F)nc(NCc3cc(O)ccc3N(C)S(=O)(=O)c3ccccc3)c12` [Example 106, 4-((2-(N-Methylphenylsulfonamido)-5-hydroxybenzyl)amino)-6-(5-fluoro-4-hydroxy-2-(2,2,2-trifluoroethyl)phenyl)-N-methyl-1H-pyrazolo[3,4-d]pyrimidine-3-carboxamide], 2520 nM corresponded to half-maximal inhibition (IC50). Regarding `CN(c1ccccc1CNc1nc(-c2cc(F)c(O)cc2CC(F)(F)F)cc2[nH]ncc12)S(C)(=O)=O` [Example 148, N-{2-[({6-[5-Fluoro-4-hydroxy-2-(2,2,2-trifluoroethyl)phenyl]-1H-pyrazolo[4,3-c]pyridin-4-yl}amino)methyl]phenyl}-N-methylmethanesulfonamide], the IC50 stood at 14.9 nM.

Consider `CCN(c1ncccc1CNc1nc(-c2cc(F)c(O)cc2CC(F)(F)F)cc2[nH]nc(C(=O)NC)c12)S(C)(=O)=O` [Example 63, 4-[({2-[ethyl(methylsulfonyl)amino]pyridin-3-yl}methyl)amino]-6-[5-fluoro-4-hydroxy-2-(2,2,2-trifluoroethyl)phenyl]-N-methyl-1H-pyrazolo[4,3-c]pyridine-3-carboxamide], for which the IC50 is 14.6 nM. Under `CNC(=O)c1n[nH]c2cc(-c3cc(F)c(O)cc3CC(F)(F)F)nc(NCc3nccnc3N(C)S(=O)(=O)c3ccccc3)c12` [Example 44, 6-[5-fluoro-4-hydroxy-2-(2,2,2-trifluoroethyl)phenyl]-N-methyl-4-[({3-[methyl(phenylsulfonyl)amino]pyrazin-2-yl}methyl)amino]-1H-pyrazolo[4,3-c]pyridine-3-carboxamide] stands 59.7 nM; under `CS(=O)(=O)N(CCO)c1ccccc1CNc1nc(-c2cc(F)c(O)cc2CC(F)(F)F)nc2[nH]nc(C(N)=O)c12` [Example 101, 6-(5-fluoro-4-hydroxy-2-(2,2,2-trifluoroethyl)phenyl)-4-((2-(N-(2-hydroxyethyl)methyl-sulfonamido)benzyl)amino)-1H-pyrazolo[3,4-d]pyrimidine-3-carboxamide], greater than 10000 nM. Under `CN(c1ccccc1CNc1nc(-c2cc(F)c(O)cc2CC(F)(F)F)nc2[nH]nc(-c3nnc(C4CCN(C(=O)CN5CCCC5)CC4)[nH]3)c12)S(C)(=O)=O` [Example 168, N-(2-{[(6-[5-Fluoro-4-hydroxy-2-(2,2,2-trifluoroethyl)phenyl]-3-{5-[1-(pyrrolidin-1-ylacetyl)piperidin-4-yl]-4H-1,2,4-triazol-3-yl}-1H-pyrazolo[3,4-d]pyrimidin-4-yl)amino]methyl}phenyl)-N-methylmethanesulfonamide] stands 1330 nM; under `CNC(=O)c1n[nH]c2cc(-c3cc(F)c(O)cc3CC(F)(F)F)nc(NCc3ccccc3N(C)S(=O)(=O)c3ccc(C)nc3)c12` [Example 69, 6-[5-fluoro-4-hydroxy-2-(2,2,2-trifluoroethyl)phenyl]-N-methyl-4-[(2-{methyl[(6-methylpyridin-3-yl)sulfonyl]amino}benzyl)amino]-1H-pyrazolo[4,3-c]pyridine-3-carboxamide], 91.6 nM. `CCc1cc(O)c(F)cc1-c1cc2[nH]nc(C(=O)NC)c2c(NCc2ccccc2N(CC)S(=O)(=O)CC)n1` [Example 2, 4-({2-[ethyl(ethylsulfonyl)amino]benzyl}amino)-6-(2-ethyl-5-fluoro-4-hydroxyphenyl)-N-methyl-1H-pyrazolo[4,3-c]pyridine-3-carboxamide] had a half-maximal inhibitory concentration (IC50) of 46.8 nM.
